Measured values published in the NIST ThermoML archive (doi:10.1021/acs.jced.8b00554).
± gives the expanded uncertainty stated by the source.

Experiment: xn = mol fraction of the nth substance listed
Conditions: Liquid, Vibrating tube method

CCCCCCCC [octane] + CCCO
mass density [kg/m3]
Conditions	353.15 K	363.15 K
100 kPa, x2 = 0.1631	–	643.75 ± 4.1
100 kPa, x2 = 0.2111	–	645.23 ± 4.1
100 kPa, x2 = 0.3158	–	649.43 ± 4.2
100 kPa, x2 = 0.4411	–	656.74 ± 4.2
100 kPa, x2 = 0.7301	–	685.03 ± 4.4
100 kPa, x2 = 0.8823	–	711.1 ± 4.5
1000 kPa, x2 = 0.2111	–	646.4 ± 4.1
1010 kPa, x2 = 0.1631	–	644.92 ± 4.1
1010 kPa, x2 = 0.3158	–	650.63 ± 4.2
1020 kPa, x2 = 0.4411	–	658.07 ± 4.2
1020 kPa, x2 = 0.7301	–	686.21 ± 4.4
1020 kPa, x2 = 0.8823	–	712.01 ± 4.6
2000 kPa, x2 = 0.3158	–	652.01 ± 4.2
2000 kPa, x2 = 0.4411	–	659.42 ± 4.2
2000 kPa, x2 = 0.7301	–	687.5 ± 4.4
2000 kPa, x2 = 0.8823	–	713.23 ± 4.6
2010 kPa, x2 = 0.1631	–	646.32 ± 4.1
2010 kPa, x2 = 0.2111	–	647.77 ± 4.2
3000 kPa, x2 = 0.1631	–	647.65 ± 4.2
3010 kPa, x2 = 0.3158	–	653.38 ± 4.2
3010 kPa, x2 = 0.4411	–	660.78 ± 4.2
3010 kPa, x2 = 0.8823	–	714.49 ± 4.6
3020 kPa, x2 = 0.2111	–	649.11 ± 4.2
3020 kPa, x2 = 0.7301	–	688.81 ± 4.4
4010 kPa, x2 = 0.2111	–	650.5 ± 4.2
4010 kPa, x2 = 0.3158	–	654.7 ± 4.2
4010 kPa, x2 = 0.4411	–	662.14 ± 4.2
4010 kPa, x2 = 0.8823	–	715.75 ± 4.6
4020 kPa, x2 = 0.1631	–	649 ± 4.2
4020 kPa, x2 = 0.7301	–	690.17 ± 4.4
5000 kPa, x2 = 0.2111	–	651.8 ± 4.2
5000 kPa, x2 = 0.3158	–	656.03 ± 4.2
5000 kPa, x2 = 0.7301	–	691.49 ± 4.4
5010 kPa, x2 = 0.1631	–	650.29 ± 4.2
5010 kPa, x2 = 0.8823	–	716.99 ± 4.6
5020 kPa, x2 = 0.4411	–	663.46 ± 4.2
6000 kPa, x2 = 0.8823	–	718.21 ± 4.6
6010 kPa, x2 = 0.1631	–	651.6 ± 4.2
6010 kPa, x2 = 0.2111	–	653.06 ± 4.2
6020 kPa, x2 = 0.3158	–	657.34 ± 4.2
6020 kPa, x2 = 0.4411	–	664.8 ± 4.3
6020 kPa, x2 = 0.7301	–	692.76 ± 4.4
7000 kPa, x2 = 0.1631	–	652.93 ± 4.2
7000 kPa, x2 = 0.3158	–	658.67 ± 4.2
7000 kPa, x2 = 0.4411	–	666.13 ± 4.3
7010 kPa, x2 = 0.2111	–	654.35 ± 4.2
7020 kPa, x2 = 0.7301	–	694.08 ± 4.5
7020 kPa, x2 = 0.8823	–	719.45 ± 4.6
8000 kPa, x2 = 0.3158	–	660 ± 4.2
8010 kPa, x2 = 0.1631	–	654.22 ± 4.2
8010 kPa, x2 = 0.2111	–	655.68 ± 4.2
8010 kPa, x2 = 0.8823	–	720.66 ± 4.6
8020 kPa, x2 = 0.4411	–	667.45 ± 4.3
8020 kPa, x2 = 0.7301	–	695.38 ± 4.5
9000 kPa, x2 = 0.1631	–	655.49 ± 4.2
9000 kPa, x2 = 0.8823	–	721.91 ± 4.6
9010 kPa, x2 = 0.3158	–	661.3 ± 4.2
9010 kPa, x2 = 0.4411	–	668.75 ± 4.3
9010 kPa, x2 = 0.7301	–	696.66 ± 4.5
9020 kPa, x2 = 0.2111	–	656.97 ± 4.2
10000 kPa, x2 = 0.1631	–	656.77 ± 4.2
10000 kPa, x2 = 0.4411	–	670.08 ± 4.3
10010 kPa, x2 = 0.2111	–	658.25 ± 4.2
10010 kPa, x2 = 0.3158	674.1 ± 4.3	–
10010 kPa, x2 = 0.4411	682.1 ± 4.4	–
10010 kPa, x2 = 0.7301	710.33 ± 4.5	–
10010 kPa, x2 = 0.8823	–	723.12 ± 4.6
10020 kPa, x2 = 0.3158	–	662.62 ± 4.2
10020 kPa, x2 = 0.7301	–	697.93 ± 4.5
11000 kPa, x2 = 0.1631	668.3 ± 4.3	658.05 ± 4.2
11000 kPa, x2 = 0.4411	–	671.35 ± 4.3
11000 kPa, x2 = 0.7301	711.46 ± 4.6	–
11000 kPa, x2 = 0.8823	735.72 ± 4.7	–
11010 kPa, x2 = 0.2111	–	659.52 ± 4.2
11010 kPa, x2 = 0.3158	–	663.89 ± 4.3
11010 kPa, x2 = 0.4411	683.25 ± 4.4	–
11010 kPa, x2 = 0.7301	–	699.17 ± 4.5
11020 kPa, x2 = 0.2111	670.17 ± 4.3	–
11020 kPa, x2 = 0.3158	675.25 ± 4.3	–
11020 kPa, x2 = 0.8823	–	724.31 ± 4.6
12000 kPa, x2 = 0.1631	–	659.27 ± 4.2
12000 kPa, x2 = 0.2111	671.35 ± 4.3	–
12000 kPa, x2 = 0.3158	676.4 ± 4.3	–
12000 kPa, x2 = 0.4411	684.41 ± 4.4	–
12000 kPa, x2 = 0.7301	712.61 ± 4.6	–
12000 kPa, x2 = 0.8823	–	725.46 ± 4.7
12010 kPa, x2 = 0.1631	669.46 ± 4.3	–
12010 kPa, x2 = 0.2111	–	660.8 ± 4.2
12010 kPa, x2 = 0.3158	–	665.14 ± 4.3
12020 kPa, x2 = 0.4411	–	672.6 ± 4.3
12020 kPa, x2 = 0.7301	–	700.4 ± 4.5
12020 kPa, x2 = 0.8823	736.81 ± 4.7	–
13000 kPa, x2 = 0.3158	677.55 ± 4.3	666.41 ± 4.3
13000 kPa, x2 = 0.4411	–	673.84 ± 4.3
13000 kPa, x2 = 0.8823	–	726.58 ± 4.7
13010 kPa, x2 = 0.1631	670.56 ± 4.3	660.51 ± 4.2
13010 kPa, x2 = 0.2111	–	662.01 ± 4.2
13010 kPa, x2 = 0.7301	–	701.64 ± 4.5
13010 kPa, x2 = 0.8823	737.84 ± 4.7	–
13020 kPa, x2 = 0.2111	672.46 ± 4.3	–
13020 kPa, x2 = 0.4411	685.53 ± 4.4	–
13020 kPa, x2 = 0.7301	713.71 ± 4.6	–
14000 kPa, x2 = 0.1631	671.69 ± 4.3	–
14000 kPa, x2 = 0.3158	678.66 ± 4.3	–
14000 kPa, x2 = 0.4411	686.68 ± 4.4	–
14000 kPa, x2 = 0.7301	714.83 ± 4.6	–
14010 kPa, x2 = 0.1631	–	661.7 ± 4.2
14010 kPa, x2 = 0.2111	673.57 ± 4.3	663.23 ± 4.3
14010 kPa, x2 = 0.3158	–	667.62 ± 4.3
14010 kPa, x2 = 0.7301	–	702.82 ± 4.5
14010 kPa, x2 = 0.8823	738.9 ± 4.7	–
14020 kPa, x2 = 0.4411	–	675.08 ± 4.3
14020 kPa, x2 = 0.8823	–	727.76 ± 4.7
15000 kPa, x2 = 0.4411	687.73 ± 4.4	–
15000 kPa, x2 = 0.8823	739.94 ± 4.7	728.85 ± 4.7
15010 kPa, x2 = 0.1631	672.77 ± 4.3	662.89 ± 4.3
15010 kPa, x2 = 0.4411	–	676.25 ± 4.3
15010 kPa, x2 = 0.7301	–	704 ± 4.5
15020 kPa, x2 = 0.2111	674.7 ± 4.3	664.4 ± 4.3
15020 kPa, x2 = 0.3158	679.74 ± 4.4	668.79 ± 4.3
15020 kPa, x2 = 0.7301	715.89 ± 4.6	–
16000 kPa, x2 = 0.3158	–	669.98 ± 4.3
16000 kPa, x2 = 0.8823	–	729.97 ± 4.7
16010 kPa, x2 = 0.1631	673.82 ± 4.3	–
16010 kPa, x2 = 0.2111	675.76 ± 4.3	665.57 ± 4.3
16010 kPa, x2 = 0.3158	680.86 ± 4.4	–
16010 kPa, x2 = 0.7301	716.98 ± 4.6	705.17 ± 4.5
16010 kPa, x2 = 0.8823	740.94 ± 4.8	–
16020 kPa, x2 = 0.1631	–	664 ± 4.3
16020 kPa, x2 = 0.4411	688.85 ± 4.4	677.45 ± 4.3
17000 kPa, x2 = 0.1631	674.88 ± 4.3	–
17000 kPa, x2 = 0.3158	681.92 ± 4.4	–
17000 kPa, x2 = 0.4411	689.88 ± 4.4	–
17000 kPa, x2 = 0.7301	–	706.32 ± 4.5
17000 kPa, x2 = 0.8823	–	731.02 ± 4.7
17010 kPa, x2 = 0.1631	–	665.15 ± 4.3
17010 kPa, x2 = 0.3158	–	671.18 ± 4.3
17010 kPa, x2 = 0.4411	–	678.56 ± 4.4
17010 kPa, x2 = 0.7301	718.02 ± 4.6	–
17020 kPa, x2 = 0.2111	676.83 ± 4.3	666.77 ± 4.3
17020 kPa, x2 = 0.8823	741.94 ± 4.8	–
18000 kPa, x2 = 0.8823	–	732.11 ± 4.7
18010 kPa, x2 = 0.1631	675.92 ± 4.3	–
18010 kPa, x2 = 0.2111	677.86 ± 4.3	–
18010 kPa, x2 = 0.3158	–	672.26 ± 4.3
18010 kPa, x2 = 0.4411	690.94 ± 4.4	679.72 ± 4.4
18010 kPa, x2 = 0.7301	719.02 ± 4.6	–
18010 kPa, x2 = 0.8823	742.92 ± 4.8	–
18020 kPa, x2 = 0.1631	–	666.27 ± 4.3
18020 kPa, x2 = 0.2111	–	667.86 ± 4.3
18020 kPa, x2 = 0.3158	682.96 ± 4.4	–
18020 kPa, x2 = 0.7301	–	707.41 ± 4.5
19000 kPa, x2 = 0.1631	676.89 ± 4.3	667.34 ± 4.3
19000 kPa, x2 = 0.4411	–	680.79 ± 4.4
19000 kPa, x2 = 0.8823	–	733.13 ± 4.7
19010 kPa, x2 = 0.2111	678.87 ± 4.4	668.92 ± 4.3
19010 kPa, x2 = 0.3158	683.98 ± 4.4	673.36 ± 4.3
19010 kPa, x2 = 0.4411	691.96 ± 4.4	–
19010 kPa, x2 = 0.7301	720.02 ± 4.6	708.47 ± 4.5
19010 kPa, x2 = 0.8823	743.88 ± 4.8	–
20000 kPa, x2 = 0.7301	721.02 ± 4.6	–
20000 kPa, x2 = 0.8823	744.83 ± 4.8	–
20010 kPa, x2 = 0.1631	677.88 ± 4.3	668.36 ± 4.3
20010 kPa, x2 = 0.2111	–	669.97 ± 4.3
20010 kPa, x2 = 0.3158	684.96 ± 4.4	674.4 ± 4.3
20010 kPa, x2 = 0.4411	692.97 ± 4.5	–
20020 kPa, x2 = 0.2111	679.82 ± 4.4	–
20020 kPa, x2 = 0.4411	–	681.9 ± 4.4
20020 kPa, x2 = 0.7301	–	709.58 ± 4.6
20020 kPa, x2 = 0.8823	–	734.15 ± 4.7
